Laboratory results taken from ChEMBL document CHEMBL1201862, “PubChem BioAssay data set” (2004).
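Tested at 5 concentrations; 48 h exposure; 96-well plates; endpoints linearly interpolated, else capped at highest concentration. GI50 is the concentration that inhibits growth by half.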 The source made the active and inactive calls. No stated cut-off is given here; in the data, active = GI50 up to about 1.1 µM and inactive = higher.

How the values were obtained:
Test in all cases: NCI anticancer screen, dose series, 48 h
[1] = tested on: 786-0
[2] = tested on: A498
[3] = tested on: A549
[4] = tested on: ACHN
[5] = tested on: CAKI-1
[6] = tested on: CCRF-CEM
[7] = tested on: COLO 205
[8] = tested on: DLD-1
[9] = tested on: DMS-114
[10] = tested on: DMS-273
[11] = tested on: EKVX
[12] = tested on: HCC 2998
[13] = tested on: HCT-116
[14] = tested on: HCT-15
[15] = tested on: HL-60
[16] = tested on: HOP-18
[17] = tested on: HOP-62
[18] = tested on: HOP-92
[19] = tested on: HT-29
[20] = tested on: IGROV-1
[21] = tested on: K562
[22] = tested on: KM-20L2
[23] = tested on: KM12
[24] = tested on: LXFL 529
[25] = tested on: M14
[26] = tested on: M19-MEL
[27] = tested on: MOLT-4
[28] = tested on: Malme-3M
[29] = tested on: NCI-H226
[30] = tested on: NCI-H23
[31] = tested on: NCI-H460
[32] = tested on: NCI-H522
[33] = tested on: OVCAR-3
[34] = tested on: OVCAR-4
[35] = tested on: OVCAR-5
[36] = tested on: OVCAR-8
[37] = tested on: RPMI-8226
[38] = tested on: RXF 393
[39] = tested on: SF-268
[40] = tested on: SF-295
[41] = tested on: SF-539
[42] = tested on: SK-MEL-28
[43] = tested on: SK-MEL-2
[44] = tested on: SK-MEL-5
[45] = tested on: SK-OV-3
[46] = tested on: SN12C
[47] = tested on: SNB-19
[48] = tested on: SNB-75
[49] = tested on: SNB-78
[50] = tested on: SR
[51] = tested on: SW-620
[52] = tested on: TK-10
[53] = tested on: U-251
[54] = tested on: UACC-257
[55] = tested on: UACC-62
[56] = tested on: UO-31
[57] = tested on: XF498
[58] = tested on: LOX IMVI

For `Cc1ccc(NC(=O)/C(C#N)=C/c2ccccc2)c(C)c1`, the GI50 [1] was > 100 µM (inactive), the GI50 [2] was > 100 µM (inactive) and the GI50 [3] was > 100 µM (inactive). For the same compound, the GI50 [4] was > 100 µM (inactive), the GI50 [5] was > 100 µM (inactive) and the GI50 [6] was > 100 µM (inactive). The GI50 [7] was > 100 µM (inactive), the GI50 [8] was > 100 µM (inactive) and the GI50 [9] was > 100 µM (inactive). The GI50 [10] was > 100 µM (inactive), the GI50 [11] was > 100 µM (inactive) and the GI50 [12] was > 100 µM (inactive). For the same compound, the GI50 [13] was > 100 µM (inactive), the GI50 [14] was > 100 µM and the GI50 [15] was > 100 µM (inactive). For the same compound, the GI50 [16] was > 100 µM (inactive), the GI50 [17] was > 100 µM (inactive) and the GI50 [18] was > 100 µM (inactive). The GI50 [19] was > 100 µM (inactive), the GI50 [20] was > 100 µM (inactive) and the GI50 [21] was > 100 µM (inactive). The GI50 [22] was > 100 µM (inactive), the GI50 [23] was > 100 µM (inactive) and the GI50 [24] was > 100 µM (inactive). For the same compound, the GI50 [25] was > 100 µM (inactive), the GI50 [26] was > 100 µM (inactive) and the GI50 [27] was > 100 µM (inactive). For the same compound, the GI50 [28] was > 100 µM (inactive), the GI50 [29] was > 100 µM (inactive) and the GI50 [30] was > 100 µM (inactive). The GI50 [31] was > 100 µM (inactive), the GI50 [32] was > 100 µM (inactive) and the GI50 [33] was > 100 µM (inactive). The GI50 [34] was > 100 µM (inactive), the GI50 [35] was > 100 µM (inactive) and the GI50 [36] was > 100 µM (inactive). For the same compound, the GI50 [37] was > 100 µM (inactive), the GI50 [38] was > 100 µM (inactive) and the GI50 [39] was > 100 µM (inactive). For the same compound, the GI50 [40] was > 100 µM (inactive), the GI50 [41] was > 100 µM (inactive) and the GI50 [42] was > 100 µM (inactive). For the same compound, the GI50 [43] was > 100 µM (inactive), the GI50 [44] was > 100 µM (inactive) and the GI50 [45] was > 100 µM (inactive). The GI50 [46] was > 100 µM (inactive), the GI50 [47] was > 100 µM (inactive) and the GI50 [48] was > 100 µM (inactive). For the same compound, the GI50 [49] was > 100 µM (inactive), the GI50 [50] was > 100 µM (inactive) and the GI50 [51] was > 100 µM (inactive). The GI50 [52] was > 100 µM (inactive), the GI50 [53] was > 100 µM (inactive) and the GI50 [54] was > 100 µM (inactive). The GI50 [55] was > 100 µM (inactive), the GI50 [56] was > 100 µM (inactive) and the GI50 [57] was > 100 µM (inactive).
For `N=C(N)NS(=O)(=O)c1ccc(Nc2c3ccccc3nc3c(C(=O)N4CCN(CCO)CC4)cccc23)cc1`, the GI50 [1] was > 100 µM (inactive), the GI50 [2] was > 100 µM (inactive) and the GI50 [3] was > 100 µM (inactive). The GI50 [4] was > 100 µM (inactive), the GI50 [5] was > 100 µM (inactive) and the GI50 [6] was > 100 µM (inactive). The GI50 [7] was > 100 µM (inactive), the GI50 [8] was > 100 µM (inactive) and the GI50 [9] was > 100 µM (inactive). For the same compound, the GI50 [10] was > 100 µM (inactive), the GI50 [11] was > 100 µM (inactive) and the GI50 [12] was > 100 µM (inactive). For the same compound, the GI50 [13] was > 100 µM (inactive), the GI50 [14] was > 100 µM and the GI50 [15] was > 100 µM (inactive). The GI50 [16] was > 100 µM (inactive), the GI50 [17] was > 100 µM (inactive) and the GI50 [18] was > 100 µM (inactive). For the same compound, the GI50 [19] was > 100 µM (inactive), the GI50 [20] was > 100 µM (inactive) and the GI50 [21] was > 100 µM (inactive). The GI50 [22] was > 100 µM (inactive), the GI50 [23] was > 100 µM (inactive) and the GI50 [58] was > 100 µM (inactive). For the same compound, the GI50 [24] was > 100 µM (inactive), the GI50 [25] was > 100 µM (inactive) and the GI50 [26] was > 100 µM (inactive). For the same compound, the GI50 [27] was > 100 µM (inactive), the GI50 [28] was > 100 µM (inactive) and the GI50 [29] was > 100 µM (inactive). For the same compound, the GI50 [30] was > 100 µM (inactive), the GI50 [31] was > 100 µM (inactive) and the GI50 [32] was > 100 µM (inactive). For the same compound, the GI50 [33] was > 100 µM (inactive), the GI50 [34] was > 100 µM (inactive) and the GI50 [35] was > 100 µM (inactive). For the same compound, the GI50 [36] was > 100 µM (inactive), the GI50 [38] was > 100 µM (inactive) and the GI50 [39] was > 100 µM (inactive). The GI50 [40] was > 100 µM (inactive), the GI50 [41] was > 100 µM (inactive) and the GI50 [42] was > 100 µM (inactive). The GI50 [43] was > 100 µM (inactive), the GI50 [44] was > 100 µM (inactive) and the GI50 [45] was 2.7 µM (inactive). The GI50 [46] was > 100 µM (inactive), the GI50 [47] was > 100 µM (inactive) and the GI50 [48] was > 100 µM (inactive). The GI50 [49] was > 100 µM (inactive), the GI50 [50] was > 100 µM (inactive) and the GI50 [51] was > 100 µM (inactive). The GI50 [52] was > 100 µM (inactive), the GI50 [53] was > 100 µM (inactive) and the GI50 [54] was > 100 µM (inactive). The GI50 [55] was > 100 µM (inactive), the GI50 [56] was > 100 µM (inactive) and the GI50 [57] was > 100 µM (inactive).
